Laboratory results from article PMC12378621, “Benzo-ring modification on Malaria Box hit MMV008138: effects on antimalarial potency and microsomal stability” (RSC Medicinal Chemistry, 2025).
Values joined by “and” are separate entries in the source; they are usually repeats but may differ in a detail not shown here. Equal values may be shown once. “Also recorded” adds a separate entry of the source.

How the values were obtained:
[1] = system: Plasmodium berghei ANKA expressing luciferase (PbGFP-Luccon); assay: In vivo efficacy in P. berghei-infected mice (luminescence on Day 7)
Protocol: 2. In vivo efficacy studies of 1 (NYU) in P. berghei-infected mice (po and iv) Efficacy of 1 in P. berghei-infected mice was assessed at the Anti-Infectives Core Facility, Department of Microbiology, Grossman School of Medicine, New York University.
A. Oral Administration Protocol
Three groups of five female Swiss Webster mice weighing 25 to 30 g were used for vehicle […]
berghei ANKA expressing luciferase (PbGFP-Luccon) obtained from a donor infected mouse.10 […]
2 to 6 and imaged on day 7.
Figure S1. Dosing and imaging timeline of P. berghei-infected mice. […]
Day 7 as described in the text.
The vehicle for all groups was 0.5% (hydroxypropyl)methyl cellulose, 0.5% Tween-80.
For the surviving mice, o n day 7 after infection, mice were anesthetized by inhalation of isofluorane and injected via i.p. with 150 mg/kg of luciferase substrate dissolved in PBS (D-Luciferin Potassium Salt , Gold Biotechnology ).
Mice were imaged 5 to 10 min after inj ection of luciferin using an IVIS imager (Lumina II In Vivo Imaging System; Perkin -Elmer). The data acquisition and analysis were performed with LivingImage (Xenogen). Accumulated light intensity was measured in each mouse to determine the baseline infection levels before treatment .
(§1) (1 picture or pasted object on this page, not shown here)
B. IV Administration Protocol
One group of four female Swiss Webster mice weighing 25 to 30 g were used for vehicle control, and groups of five mice were used for 1 treatment (IV, 2 x 30 mg/kg/d) and the positive […]
On Day 0, mice were infected via intraperitoneal (i.p.) […]
from a donor infected mouse. 10 As shown below in Figure S2 (and legend), mice were treated […]
Figure S2. Dosing and imaging timeline of P. berghei-infected mice. Vehicle and 1 (30 mpk) treatments were administered IV twice -daily on Days 2-6. […]
administered i .p. once-daily. Mice were imaged on Day 7, as described in the text.
The vehicle for this study was 30%PEG, 40% Captisol (30%w/v solution).
Table S2. Luminescence Data after background subtraction for IV dosing of Vehicle, 1, and IP […]
Table S9. Concentration of 20c vs time in mice. […]
Figure S6. Dosing and imaging timeline of P. berghei-infected mice. […]

in vitro [2] = settings: male, mouse, microsomes; for % remaining, Replicate 1 / Replicate 2: 1 µM; for remaining at 0.5 min, 1 µM / remaining at 5 min, 1 µM / remaining at 10 min, 1 µM / remaining at 0.25 h, 1 µM / remaining at 20 min, 1 µM / remaining at 0.5 h, 1 µM: % remaining, Replicate 1 / Replicate 2
Protocol: Metabolic stability of 1 was studied in pooled male mouse liver microsomes (final concentration 0.5 mg/mL, 5 mM MgCl 2, 100 mM phosphate buffer). The final concentration of test […]
The mixture was pre-warmed 37°C for 5 min before addition of 50 μL of 10 mM NADPH solution at the final concentration of 1 mM and carried out at 37°C. 50 μL of ultra-pure H2O was used instead of NADPH solution in the […]
negative control. […] Drug […]
concentrations were determined using triple quad LC-MS (Table S5).
as §1

[3] = system: P. falciparum (Dd2 strain); assay: Metabolic rescue of parasite growth by isopentenyl diphosphate (IPP) supplementation; type: cell-based, Plasmodium falciparum
Protocol: (§2) […]. MMV008138 (1) was used as control. The percentage of growth was normalized to that of untreated control parasites in the presence of 0.1% DMSO. Background determinations were made using uninfected erythrocytes. Two or more independent experiments in duplicate were performed. The EC50 values were calculated with GraphPad Prism 9 (GraphPad Software Ltd.) using nonlinear regression curve fitting with variable slope (four parameters) and represent the average and their standard error of the mean (S.E.M.). To assess whether 20a–e specifically targeted the apicoplast, the recovery of growth in the presence of inhibitor and isopentenyl diphosphate (IPP) was performed as described previously.[8] Briefly, parasites were grown in the presence or absence of 200 μM IPP along with a serial dilution (10 μM to 0.01 μM) or single concentration (10 or 20 μM) of drug. […] All conditions were set in 96-well half area plates using highly synchronous ring-stage parasite cultures (100 μL per well at 1% hematocrit and 1% parasitemia) and incubated for 72 h under normal culture conditions. Parasite growth was measured by the SYBR green I assay.

[4] = system: P. falciparum (Dd2 strain); assay: ABS P. falciparum growth inhibition, SYBR Green I assay, 72 h endpoint; type: cell-based, Plasmodium falciparum; settings: for EC50: Plasmodium falciparum, DD2, Table 2, enantiopure, SYBR Green I, 72 h endpoint, average ± S.E.M, read-out: Dd2 strain P. falciparum growth inhibition EC50
Protocol: Parasites were maintained in O-positive human erythrocytes (Grifols, Memphis, TN, USA) at 5% hematocrit in RPMI 1640 medium supplemented with 5 g L^−1 Albumax I (Gibco Life Technologies), 2 g L^−1 glucose (Sigma-Aldrich), 2.3 g L^−1 sodium bicarbonate (Sigma-Aldrich), 370 μM hypoxanthine (Sigma-Aldrich), 25 mM HEPES, and 20 mg L^−1 gentamicin (Gibco Life Technologies). The parasites were kept at 37 °C under reduced-oxygen conditions (5% CO2, 5% O2, and 90% N2).
as §2

in vivo = settings: mouse
Protocol: 3. Pharmacokinetics of 1 in mice
Pharmacokinetic analysis of 1 in mice was performed by Pharmaron (Beijing, China). Three mice each (23 ± 1 g) were used for oral (40 mg/kg, gavage, conscious) and for IV (10 mg/kg, lateral tail vein with anesthesia) administration. The vehicle for both routes wa s 20% DMSO, 60% PEG400 and 20% SBE-β-CD (30% w/v) in water. Stock concentrations were 4 mg/mL (both oral and IV respectively), and mice were dosed at 10.0 and 2.5 mL/kg (oral and IV respectively).
Quantitation was performed by triple-quad LC-MS.

in vitro [5] = settings: female, CD-1, mouse, microsomes, pH 7.4
Protocol: Mouse microsomal stability of 20a, 20c, 20d was first assessed in our laboratory. […]
and coumarin were used as controls . Microsomal stability was assessed by ultra-performance liquid chromatography and high -resolution mass spectrometry […]
MA). Potassium phosphate monobasic, potassium phosphate dibasic, and coumarin were purchased from Sigma-Aldrich (St. Louis, MO). Briefly, compound incubations were carried out by the addition of mouse liver microsomes (0.5 mg/ml) in 0.05 M potassium phosphate buffer (pH 7.4), solution A and B, and preincubated at 37°C for 5 min. Control experiments were also carried out in the absence of NADPH solution A and B. Coumarin reaction was used as positive control. Reactions were terminated by adding acetonitrile. Sample analysis was performed on an IonKey/MS system composed of an ACQUITY UPLC M-Class, the ionKey source, and an iKey BEH C18 130 Å 1.7 µm 150 µm x 50 mm column coupled to a Synapt G2-Si mass spectrometer (Waters Corporation, Milford, MA, USA). Separation was accomplished using a binary gradient system consisting of 0.1% formic acid in water (mobile phase A) and 0.1% formic acid in acetonitrile (mobile phase B). The linear gradient was programmed as follows: 0-3 min 1% B, 3- […]
was 3 µL/min, the injection volume was 3 µL in full loop mode, and the iKey temperature was set at 40°C. MS analyses were performed acquiring in MSE mode from 80 to 1500 m/z in positive electrospray ionization mode with a capillary voltage of 3 kV. Data were collected in two channels all the time: low collision energy (6.0 V), for the molecular ions, and high collision energy (15-40 V), for product ions. The source temperature was set at 110°C. Leucine […]
scan at 20 s intervals. Infusion flow rate for lock mass was 1 μL/min. The microsomal stability was determined using MassLynx software (Waters Corporation, Milford, MA, USA). Relative amounts were calculated by comparing the peak area of each evaluated compound at time 0 minutes to its corresponding area at times 45, 90 and 180 minutes to return a ratio.

[6] = Table S10, 40 mg/kg 1 x daily PO Days 2-6, imaged Day 7
[7] = iv, 10 mg/kg, plasma concentration
[8] = po, 40 mg/kg, plasma concentration

## O=C(O)[C@@H]1Cc2c([nH]c3cc(F)ccc23)[C@@H](c2ccc(Cl)cc2Cl)N1 [Compound 20c]
[1]; 40 mg/kg po Days 2-6, Day 7
  reduction of luminescence relative to vehicle control: did not reduce luminescence
[1]; P. berghei mouse model, oral dosing (20c 5 × 40 mg per kg per day)
  reduction in parasitemia / efficacy: no reduction in parasitemia; also recorded: not efficacious
[1]; [6]
  Luminescence after background subtraction AVG: 9.7E+06
  Luminescence after background subtraction, individual mice: 6.51E+05 and 2.35E+06 and 3.10E+06 and 4.05E+05 and 1.33E+06
In vitro [2]; 5 min
  % remaining, Replicate 1 / Replicate 2: 105.2%
In vitro [2]; 10 min
  % remaining, Replicate 1 / Replicate 2: 105.5%
In vitro [2]; 0.25 h
  % remaining, Replicate 1 / Replicate 2: 100.5%
In vitro [2]; 20 min
  % remaining, Replicate 1 / Replicate 2: 100.4%
In vitro [2]; 0.5 h
  % remaining, Replicate 1 / Replicate 2: 85.7%
In vitro [2]
  remaining at 0.5 min, 1 µM: 100%
  remaining at 5 min, 1 µM: 90.9%
  remaining at 10 min, 1 µM: 91.4%
  remaining at 0.25 h, 1 µM: 84.7%
  remaining at 20 min, 1 µM: 85.9%
  remaining at 0.5 h, 1 µM: 95.2%
[3]; drug at 2.5 μM
  % recovery (200 μM IPP): 100%@2.5 μM
[4]
  EC50: 501 ± 47 nM
In vivo; iv, 10 mg/kg
  AUC(0-inf): 49.6 µM·h
  AUC(0-t): 48.7 µM·h
  C0: 34.5 µM
  clearance: 8.85 mL/min/kg
  tlast: 24 h
In vivo; iv, 10 mg/kg, Cmin
  concentration at 24 h: 0.1 ± 0.1 µM
In vivo; [7]
  concentration at 0.083 h: 33.3 µM
  concentration at 0.25 h: 30.9 ± 4 µM
  concentration at 0.5 h: 14.4 ± 4.1 µM
  concentration at 1 h: 9.7 ± 2 µM
  concentration at 2 h: 3.3 ± 1.5 µM
  concentration at 4 h: 1.4 ± 0.4 µM
  concentration at 8 h: 1.4 ± 0.3 µM
  concentration at 24 h: 0.1 ± 0.1 µM
In vivo; iv, 10 mg/kg, t1/2
  half-life: 4.96 h
In vivo; po, 40 mg/kg
  AUC0-inf: 114 µM·h
  AUC(0-inf): 114 µM·h
  AUC(0-t): 110 µM·h
  Cmax: 19.9 ± 8.1 µM
  Tmax: 0.5 h
  oral AUC0-inf higher than that of 1: 30%
  tlast: 24 h
In vivo; po, 40 mg/kg, % F
  bioavailability: 58%
In vivo; po, 40 mg/kg, %F
  bioavailability: 57.8%
In vivo; po, 40 mg/kg, Cmin
  concentration at 24 h: 0.6 ± 0.6 µM
In vivo; [8]
  concentration at 0.25 h: 19.8 ± 8.1 µM
  concentration at 0.5 h: 19.9 ± 3.2 µM
  concentration at 1 h: 13.9 ± 10.8 µM
  concentration at 2 h: 8.8 ± 5.9 µM
  concentration at 4 h: 10 ± 3.7 µM
  concentration at 8 h: 3.9 ± 0.7 µM
  concentration at 24 h: 0.6 ± 0.06 µM
In vivo; po, 40 mg/kg, t 1/2
  half-life: 5.2 h
In vivo; po, 40 mg/kg, t1/2
  half-life: 5.17 h

## O=C(O)[C@@H]1Cc2c([nH]c3c(F)cccc23)[C@@H](c2ccc(Cl)cc2Cl)N1 [Compound 20d]
In vitro [2]; 5 min
  % remaining, Replicate 1 / Replicate 2: 56.5%
In vitro [2]; 10 min
  % remaining, Replicate 1 / Replicate 2: 41.8%
In vitro [2]; 0.25 h
  % remaining, Replicate 1 / Replicate 2: 31.5%
In vitro [2]; 20 min
  % remaining, Replicate 1 / Replicate 2: 28.2%
In vitro [2]; 0.5 h
  % remaining, Replicate 1 / Replicate 2: 25.1%
In vitro [2]
  remaining at 0.5 min, 1 µM: 100%
  remaining at 5 min, 1 µM: 61.1%
  remaining at 10 min, 1 µM: 42.6%
  remaining at 0.25 h, 1 µM: 34.3%
  remaining at 20 min, 1 µM: 30.3%
  remaining at 0.5 h, 1 µM: 24.8%
[3]; drug at 10 μM
  % recovery (200 μM IPP): 100%@10 μM
[4]; Dd2 strain
  loss of growth inhibition potency (EC50) relative to 1: ≤ 3 fold
[4]
  EC50: 717 ± 73 nM

## O=C(O)[C@@H]1Cc2c([nH]c3cccc(F)c23)[C@@H](c2ccc(Cl)cc2Cl)N1 [Compound 20a]
In vitro [5]
  half-life: ~0.167 h
[3]; drug at 2.5 μM
  % recovery (200 μM IPP): 100%@2.5 μM
[4]
  EC50: 451 ± 28 nM
